Test results as given in patent US10618916B2, “Heterocyclic compounds as immunomodulators” (Incyte Corporation, priority 2018, dated 2020).

What was measured:
[1] = biological target: PD-L1 (Homo sapiens (Human), UniProt Q9NZQ7); test: PD-L1 whole blood internalization assay; assay type: cell-based; conditions: 24 HR, PD-L1 expression on CD14+ cells, human interferon γ
Procedure: Example D. PD-L1 Whole Blood Internalization Assay
To determine PD-L1 internalization in human whole blood, normal human blood (Biological Specialty Corp, Colmar. Pa.) was incubated in the presence or absence of a concentration range of test compounds and 1 ng/ml human interferon γ (R&D Systems Inc. Minn. […] Blood was then stained with PD-L1 (MIH1, eBioscience; or BD Biosciences San Jose, Calif.), CD14 (Life Technologies, Carlsbad, Calif.) for 30 minutes in the dark at room temperature. Whole Blood/red cells were lysed/fixed (lysis buffer BD Biosciences) for 5 minutes at 37° C. in the dark and then centrifuged at 1600 RPM for 5 minutes. Cells were resuspended in Stain Buffer (BD Bioscience, San Jose, Calif.) and transferred into 96 well round bottom plates (Corning). Cells were gated on CD14+(BD Biosciences) and PD-L1 expression determined by mean fluorescence intensity (MFI) (BD LSRFortessa™ X-20). IC50 determination was performed by fitting the curve of compound percent inhibition versus the log of the compound concentration using the GraphPad Prism 7.0 software.

[2] = system: U2OS/PD-L1 cells and Jurkat-PD-1-SHP cells; test: Src homology region 2 domain-containing phosphatase (SHP) assay; assay type: cell-based; conditions: Homo sapiens, U2OS
Procedure: Example B. Src Homology Region 2 Domain-Containing Phosphatase (SHP) Assay
U2OS/PD-L1 cells (DiscoveRx Corporation) were maintained in McCoy's 5A medium with addition of 10% FBS, 0.25 μg/ml Puromycin. After removing the culture media, the cell medium was replaced with assay medium (RPMI1640 medium with 1% FBS). The U2OS/PD-L1 cells were then added in 384-well black clear bottom assay plate (CELLCOAT® Tissue Culture Plates, Greiner Bio-One) at 5000 cells per well in 20 μL assay medium. Test compounds were prepared by serial dilution in DMSO and 125 nL compound were first transferred to the 384 REMP plate well (Thermofisher) by ECHO liquid handler (Labcyte) followed with addition of 27.5 μL assay medium. 5 μL/well compounds in the assay medium were transferred to the cell plate with 0.05% DMSO in the final assay at […]. Jurkat-PD-1-SHP cells (DiscoveRx Corporation) were cultured in RPMI1640 medium supplemented with 10% FBS, 250 μg/ml Hygromycin B, 500 μg/ml G418. After the replacement of culture media with assay medium, 5,000 Jurkat-PD-1-SHP cells in 20 μL were dispensed into each well. The assay plate was incubated at 37° C., 5% CO2 for 2 hours before 2.5 μL PathHunter reagent 1 (DiscoveRx Corporation) were added to each well. The assay plate was shaken for 1 min at 350 rpm in the dark followed with addition of 10 μL PathHunter reagent 2 (DiscoveRx Corporation). Chemiluminescent signal was recorded with TopCount reader (Perkin Elmer) after incubation at room temperature for 1 hour. Wells with DMSO were served as the positive controls and wells containing no cells were used as negative controls. IC50 determination was performed by fitting the curve of percentage of control activity versus the log of the compound concentration using the GraphPad Prism 6.0 software.

[3] = biological target: PD-1/PD-L1 protein/protein interaction (recombinant human PD-L1 and human PD-1) (Homo sapiens (Human), UniProt Q9NZQ7); test: Homogeneous Time-Resolved Fluorescence (HTRF) PD-1/PD-L1 binding assay
PD-1/PD-L1 protein/protein interaction (recombinant human PD-L1 and human PD-1), sequence (Q9NZQ7 19-238): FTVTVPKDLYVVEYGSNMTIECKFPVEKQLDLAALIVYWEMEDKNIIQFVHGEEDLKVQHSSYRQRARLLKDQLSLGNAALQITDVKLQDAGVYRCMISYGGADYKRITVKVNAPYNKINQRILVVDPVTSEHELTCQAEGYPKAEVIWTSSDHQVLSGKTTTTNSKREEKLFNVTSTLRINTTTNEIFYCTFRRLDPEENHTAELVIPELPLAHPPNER
Procedure: Example A. Homogeneous Time-Resolved Fluorescence (HTRF) PD-1/PD-L1 Binding Assay
The assays were conducted in a standard black 384-well polystyrene plate with a final volume of 20 μL. Inhibitors were first serially diluted in DMSO and then added to the plate wells before the addition of other reaction components. The final concentration of DMSO in the assay was 1%. The assays were carried out at 25° C. in the PBS buffer (pH 7.4) with 0.05% Tween-20 and 0.1% BSA. Recombinant human PD-L1 protein (19-238) with a His-tag at the C-terminus was purchased from AcroBiosystems (PD1-H5229). Recombinant human PD-1 protein (25-167) with Fc tag at the C-terminus was also purchased from AcroBiosystems (PD1-H5257). PD-L1 and PD-1 proteins were diluted in the assay buffer and 10 μL was added to the plate well. Plates were centrifuged and proteins were preincubated with inhibitors for 40 minutes. The incubation was followed by the addition of 10 μL of HTRF detection buffer supplemented with Europium cryptate-labeled anti-human IgG (PerkinElmer-AD0212) specific for Fc and anti-His antibody conjugated to SureLight®-Allophycocyanin (APC, PerkinElmer-AD0059H). After centrifugation, the plate was incubated at 25° C. for 60 min. before reading on a PHERAstar FS plate reader (665 nm/620 nm ratio). Final concentrations in the assay were—3 nM PD1, 10 nM PD-L1, 1 nM europium anti-human IgG and 20 nM anti-His-Allophycocyanin. IC50 determination was performed by fitting the curve of percent control activity versus the log of the inhibitor concentration using the GraphPad Prism 5.0 software.

[4] = system: PD-L1 aAPC/CHO-K1 cells and Jurkat-PD-1-NFAT effector cells; test: Nuclear factor of activated T-cells (NFAT) assay; assay type: cell-based; conditions: Cricetulus griseus, CHO-K1
Procedure: Example C. Nuclear Factor of Activated T-Cells (NFAT) Assay
PD-L1 aAPC/CHO-K1 cells (Promega) were maintained in F-12 medium with addition of 10% FBS, 200 μg/ml Hygromycin B, 250 μg/ml Geneticin (G418). Jurkat-PD-1-NFAT effector cells (Promega) were cultured in RPMI 1640 medium supplemented with 10% FBS, 100 μg/ml Hygromycin B, 500 μg/ml G418. The culture media of PD-L1 aAPC/CHO-K1 cells were first replaced with assay medium (RPMI1640 medium with 1% FBS). The PD-L1 aAPC/CHO-K1 cells were then added in a white 384-well white clear bottom assay plate (CELLCOAT® Tissue Culture Plates, Greiner Bio-One) at 8000 per well in 10 μL assay medium. Test compounds were prepared by serial dilution in DMSO and 0.8 μL test compounds in DMSO were first transferred to the 384 REMP plate well (Thermofisher) by PlateMate Plus (Thermofisher) followed with addition of 50 μL plating medium. 5 μL compounds in the assay medium were transferred to the cells with 0.4% DMSO in the final assay at 2 μM. After removing the culture media, 10,000 Jurkat-PD-1-NFAT effector cells in 5 μL assay medium was dispensed into each well. The assay plate was incubated at 37° C., 5% CO2 for 24 hours. After the assay plate was equilibrated to room temp for 15 minutes, 20 µL/well of Bio-Glo™ reagent (Promega) were added. After 8 minutes incubation at room temperature, luminescence was read at with Pherastar microplate reader (BMG Labtech). The fold of induction (FOI) was calculated based on the ratio of luminescence normalized to the DMSO wells within each assay plate. The maximum percentage of induction was reported based on the ratio between the highest FOI of each compound and the maximum FOI of control compound within each assay plate. Wells with DMSO were served as the negative controls and wells containing control compound with the highest FOI were used as positive controls. EC50 determination was performed by fitting the curve of percent control activity versus the log of the compound concentration using the GraphPad Prism 6.0 software.

PD-L1, sequence (Q9NZQ7 19-290): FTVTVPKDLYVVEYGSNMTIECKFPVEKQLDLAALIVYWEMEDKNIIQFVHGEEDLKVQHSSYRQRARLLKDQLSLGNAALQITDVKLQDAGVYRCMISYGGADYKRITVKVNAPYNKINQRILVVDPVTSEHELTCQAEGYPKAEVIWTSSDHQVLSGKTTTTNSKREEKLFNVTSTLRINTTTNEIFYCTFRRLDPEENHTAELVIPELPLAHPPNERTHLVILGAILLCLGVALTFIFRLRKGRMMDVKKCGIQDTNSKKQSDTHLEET

Cn1c(C(=O)Nc2cccc(-c3cccc(NC(=O)c4nc5c(n4C)CCN(C4CCC(O)CC4)C5)c3Cl)c2Cl)nc2c1CCN(CCC13CCC(C(=O)O)(CC1)C3)C2 (single isomer, unassigned) [60 (compound 1), 4-(2-(2-((2,2′-dichloro-3′-(5-(4-hydroxycyclohexyl)-1-methyl-4,5,6,7-tetrahydro-1H-imidazo[4,5-c]pyridine-2-carboxamido)-[1,1′-biphenyl]-3-yl)carbamoyl)-1-methyl-1,4,6,7-tetrahydro-5H-imidazo[4,5-c]pyridin-5-yl)ethyl)bicyclo[2.2.1]heptane-1-carboxylic Acid]
IC50 [1]: 10 to 100 nM | IC50 [2]: ≤ 10 nM | IC50 [3]: ≤ 5 nM | EC50 [4]: ≤ 10 nM

Cn1c(C(=O)Nc2cccc(-c3cccc(NC(=O)c4nc5c(n4C)CCN(C4CCN(C(N)=O)CC4)C5)c3Cl)c2Cl)nc2c1CCN(CCC13CCC(C(=O)O)(CC1)C3)C2 [Example 7, 4-(2-(2-((3′-(5-(1-carbamoylpiperidin-4-yl)-1-methyl-4,5,6,7-tetrahydro-1H-imidazo[4,5-c]pyridine-2-carboxamido)-2,2′-dichloro-[1,1′-biphenyl]-3-yl)carbamoyl)-1-methyl-1,4,6,7-tetrahydro-5H-imidazo[4,5-c]pyridin-5-yl)ethyl)bicyclo[2.2.1]heptane-1-carboxylic acid]
IC50 [1]: 10 to 100 nM | IC50 [3]: ≤ 5 nM | EC50 [4]: 10 to 100 nM

Cc1c(NC(=O)c2nc3c(n2C)CCN(C2CCOCC2)C3)cccc1-c1cccc(NC(=O)c2nc3c(n2C)CCN(CCC24CCC(C(=O)O)(CC2)C4)C3)c1Cl [Example 28, 4-(2-(2-((2-chloro-2′-methyl-3′-(1-methyl-5-(tetrahydro-2H-pyran-4-yl)-4,5,6,7-tetrahydro-1H-imidazo[4,5-c]pyridine-2-carboxamido)-[1,1′-biphenyl]-3-yl)carbamoyl)-1-methyl-1,4,6,7-tetrahydro-5H-imidazo[4,5-c]pyridin-5-yl)ethyl)bicyclo[2.2.1]heptane-1-carboxylic acid]
IC50 [1]: 10 to 100 nM | IC50 [3]: ≤ 5 nM | EC50 [4]: 10 to 100 nM

Cc1c(NC(=O)c2nc3c(n2C)CCN(C[C@H](C)O)C3)cccc1-c1cccc(NC(=O)c2nc3c(n2C)CCN(CCC24CCC(C(=O)O)(CC2)C4)C3)c1Cl [Example 32, (S)-4-(2-(2-((2-chloro-3′-(5-(2-hydroxypropyl)-1-methyl-4,5,6,7-tetrahydro-1H-imidazo[4,5-c]pyridine-2-carboxamido)-2′-methyl-[1,1′-biphenyl]-3-yl)carbamoyl)-1-methyl-1,4,6,7-tetrahydro-5H-imidazo[4,5-c]pyridin-5-yl)ethyl)bicyclo[2.2.1]heptane-1-carboxylic acid]
IC50 [1]: 10 to 100 nM | IC50 [3]: ≤ 5 nM | EC50 [4]: 10 to 100 nM

Cc1c(NC(=O)c2nc3c(n2C)CCN(CCO)C3)cccc1-c1cccc(NC(=O)c2nc3c(n2C)CCN(CCC24CCC(C(=O)O)(CC2)C4)C3)c1Cl [Example 33, 4-(2-(2-((2-chloro-3′-(5-(2-hydroxyethyl)-1-methyl-4,5,6,7-tetrahydro-1H-imidazo[4,5-c]pyridine-2-carboxamido)-2′-methyl-[1,1′-biphenyl]-3-yl)carbamoyl)-1-methyl-1,4,6,7-tetrahydro-5H-imidazo[4,5-c]pyridin-5-yl)ethyl)bicyclo[2.2.1]heptane-1-carboxylic acid]
IC50 [1]: 10 to 100 nM | IC50 [3]: ≤ 5 nM | EC50 [4]: 10 to 100 nM

Cc1c(NC(=O)c2nc3c(n2C)CCN(CCO)C3)cccc1-c1cccc(NC(=O)c2nc3c(n2C)CCN(CCC24CCC(C(=O)O)(CC2)C4)C3)c1C [Example 59, 4-(2-(2-((3′-(5-(2-hydroxyethyl)-1-methyl-4,5,6,7-tetrahydro-1H-imidazo[4,5-c]pyridine-2-carboxamido)-2,2′-dimethyl-[1,1′-biphenyl]-3-yl)carbamoyl)-1-methyl-1,4,6,7-tetrahydro-5H-imidazo[4,5-c]pyridin-5-yl)ethyl)bicyclo[2.2.1]heptane-1-carboxylic acid]
IC50 [2]: ≤ 10 nM | IC50 [3]: ≤ 5 nM | EC50 [4]: 100 to 500 nM

Cn1c(C(=O)Nc2cccc(-c3cccc(NC(=O)c4nc5c(n4C)CCN(CCC46CCC(C(=O)O)(CC4)C6)C5)c3Cl)c2Cl)nc2c1CCN(CCCCC(=O)O)C2 [Example 63, 4-(2-(2-((3′-(5-(4-carboxybutyl)-1-methyl-4,5,6,7-tetrahydro-1H-imidazo[4,5-c]pyridine-2-carboxamido)-2,2′-dichloro-[1,1′-biphenyl]-3-yl)carbamoyl)-1-methyl-1,4,6,7-tetrahydro-5H-imidazo[4,5-c]pyridin-5-yl)ethyl)bicyclo[2.2.1]heptane-1-carboxylic acid]
IC50 [1]: 10 to 100 nM | IC50 [3]: ≤ 5 nM | EC50 [4]: 10 to 100 nM

CN(C)C(=O)CCCCN1CCc2c(nc(C(=O)Nc3cccc(-c4cccc(NC(=O)c5nc6c(n5C)CCN(CCC57CCC(C(=O)O)(CC5)C7)C6)c4Cl)c3Cl)n2C)C1 [Example 64, 4-(2-(2-((2,2′-dichloro-3′-(5-(5-(dimethylamino)-5-oxopentyl)-1-methyl-4,5,6,7-tetrahydro-1H-imidazo[4,5-c]pyridine-2-carboxamido)-[1,1′-biphenyl]-3-yl)carbamoyl)-1-methyl-1,4,6,7-tetrahydro-5H-imidazo[4,5-c]pyridin-5-yl)ethyl)bicyclo[2.2.1]heptane-1-carboxylic Acid]
IC50 [1]: 10 to 100 nM | IC50 [3]: ≤ 5 nM | EC50 [4]: ≤ 10 nM
